Common to all, as to test: NCI anticancer screen, dose series, 48 h
In experiment [1] the test system is KM12 colon.
Experiment [2] deals with OVCAR-8 ovarian.
Experiment [3] has as its system TK-10 renal.
Experiment [4] has as its system NCI-H522 lung.
In experiment [5] the test system is EKVX NSCLC.
Experiment [6] relates to MCF7 breast.
For experiment [7], the system named is OVCAR-4 ovarian.
Experiment [8] has as its system 786-0 renal.
Experiment [9] deals with UACC-257 melanoma.
Experiment [10] relates to HOP-92 NSCLC.

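In this assay, cells in 96-well plates receive the compound at five concentrations for 48 hours. Endpoints are linearly interpolated between the surrounding concentrations. TGI marks complete inhibition of growth.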

As for `CCSCCC(N)C(=O)O` (stereo not given), the TGI in experiment [1], in experiment [2], in experiment [3], in experiment [4], in [5] and in experiment [6] was more than 100 µM each time. The TGI in experiment [7], in experiment [8], in experiment [9] and in [10] was more than 100 µM in each case.
With `COc1ccc2nc(-n3c(/C=C/c4ccccc4O)nc4ccccc4c3=O)sc2c1`, the TGI in experiment [1] is more than 100 µM; in [2], more than 100 µM; in [3], more than 100 µM; in [4], more than 100 µM; in experiment [5], 39.7 µM; in experiment [6], more than 100 µM. Besides, the TGI in experiment [7], in experiment [8], in experiment [9] and in [10] was more than 100 µM throughout.
For the compound `C[C@]12CC[C@@H]3c4ccc(OP(=O)(O)O)cc4CC[C@H]3[C@@H]1CCC2=O`, the TGI in experiment [1], in experiment [2], in experiment [3], in [4], in experiment [5] and in experiment [6] was more than 100 µM each time. Besides, the TGI in experiment [7], in experiment [8], in experiment [9] and in experiment [10] was more than 100 µM throughout.
As for `Cn1c(=S)[nH]c2sc3c(c2c1=O)CCSC3`, the TGI in experiment [1] is more than 100 µM; in experiment [2], more than 100 µM; in experiment [3], more than 100 µM; in [4], more than 100 µM; in experiment [5], 85.4 µM; in [6] it was more than 100 µM. Besides, the TGI in experiment [7], in experiment [8], in experiment [9] and in experiment [10] was more than 100 µM throughout.
For the compound `CC(=O)Nc1cc([As](=O)(O)O)ccc1O`, the TGI in experiment [1], in experiment [2], in experiment [3], in [4], in experiment [5] and in [6] was more than 100 µM throughout. The TGI in [7], in experiment [8], in [9] and in experiment [10] was more than 100 µM each time.
As to `COc1ccc2nc(N/N=C/C(C)=N/Nc3cc(C)c4cc(OC)ccc4n3)cc(C)c2c1`, the TGI in experiment [1] worked out at 44.1 µM; in [2], 39.5 µM; in experiment [3], 69.4 µM; in [4], 40.3 µM; in experiment [5], 40.2 µM; in experiment [6], 29.8 µM. The TGI is 35.6 µM in experiment [7], 28 µM in experiment [8], more than 86.6 µM in [9] and more than 89.9 µM in experiment [10].
For the compound `NC(=O)c1cc2cc(Cl)cc(Cl)c2oc1=Nc1ccc(F)cc1`, the TGI in experiment [1] is more than 100 µM; in experiment [2], more than 100 µM; in experiment [3] it was 30 µM; in [4] it was 38.1 µM; in experiment [5], 34.5 µM; in experiment [6], 45.1 µM. Moreover, the TGI was determined as 70.6 µM in experiment [7], 25.3 µM in experiment [8], 42.8 µM in experiment [9] and 80.4 µM in experiment [10].
For `COC(=O)C1=CC2CCCC1(O)C(C(C)=O)C2` (stereo not given), the TGI is more than 100 µM in [1]; more than 79.5 µM in experiment [2]; more than 100 µM in experiment [3]; 31.7 µM in experiment [4]; more than 86.6 µM in [5]; more than 100 µM in experiment [6]. Further, the TGI in [7] was more than 100 µM; in [8], 41.3 µM; in [9], more than 100 µM; in experiment [10], more than 100 µM.
